Laboratory results as given in US20220031680A1, “Donecopride As Neuroprotective Agent In the Treatment of Neurodegenerative Diseases” (priority 2018, published 2022).

Tested on: dopaminergic TH-positive neurons injured with MPP+
Assay: Survival and neurite network of TH neurons in primary mesencephalic culture injured with MPP+
Format: cell-based, rat
Settings: MPP+ 4 μM 48 h; 1 h pre-incubation
Description: The aim of the present study was to investigate the neuroprotective effect of MR36014 and MR33583 (at 4 concentrations) on dopaminergic TH-positive neurons injured with MPP^+. The test compounds were pre-incubated for 1 hour before MPP^+ application (4 μM for 48 h). The neuroprotective effect (survival and neurite network) of test compounds was investigated. In addition, the effect on the cytoplasmic alpha-synuclein accumulation was studied.
Rat dopaminergic neurons were cultured as described by Callizot et al. (2019) PLoS One 14:e0215277 and Visanji et al. (2008) FASEB J. 22:2488-2497. Briefly, pregnant female rat (Wistar) of 15 days of gestation were killed using a deep anesthesia with CO2 chamber and a cervical dislocation. The midbrains obtained from 15-day-old rat embryos (Janvier, France) were dissected under a microscope. […]
Midbrains were dissociated by trypsinisation for 20 min at 37° C. […] Viable cells were counted in a Neubauer cytometer using the trypan blue exclusion test. […]
Briefly, on day 6 of culture, the medium was removed, and fresh medium was added, with or without test compounds and with or without MPP^+ for 48 hours diluted in control medium. 6 wells per condition were assessed. […]
Test compounds were tested in 96-well plate (n=6 culture wells per condition). […] The following conditions were assessed: […]

Row | SMILES | concentrations improving TH neuron survival [nM] | concentrations protecting the neurite network of TH neurons
1 | COc1cc(N)c(F)cc1C(=O)CCC1CCN(CC2CCCC2)CC1 [MR33583] | 100 | 
2 | COc1cc(N)c(F)cc1C(=O)CCC1CCN(CC2CCCCCC2)CC1 [MR36014] |  | all investigated doses
